Data taken from PubChem BioAssay (NCI).
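Five concentrations, 48 hours, 96-well plates. GI50: concentration for 50% inhibition of growth. Definition used: TGI = concentration required for complete inhibition of growth.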

Key:
Test in all cases: DTP human tumour cell line panel, 48 h
786-0 renal = system: 786-0 renal
A498 renal = system: A498 renal
A549 NSCLC = system: A549 NSCLC
ACHN renal = system: ACHN renal
BT-549 breast = system: BT-549 breast
CAKI-1 renal = system: CAKI-1 renal
CCRF-CEM leukemia = system: CCRF-CEM leukemia
COLO 205 colon = system: COLO 205 colon
DU-145 prostate = system: DU-145 prostate
EKVX NSCLC = system: EKVX NSCLC
HCC-2998 colon = system: HCC-2998 colon
HCT-116 colon = system: HCT-116 colon
HCT-15 colon = system: HCT-15 colon
HL-60(TB) leukemia = system: HL-60(TB) leukemia
HOP-62 NSCLC = system: HOP-62 NSCLC
HOP-92 NSCLC = system: HOP-92 NSCLC
HS 578T breast = system: HS 578T breast
HT29 colon = system: HT29 colon
IGROV1 ovarian = system: IGROV1 ovarian
K-562 leukemia = system: K-562 leukemia
KM12 colon = system: KM12 colon
LOX IMVI melanoma = system: LOX IMVI melanoma
M14 melanoma = system: M14 melanoma
MALME-3M melanoma = system: MALME-3M melanoma
MCF7 breast = system: MCF7 breast
MDA-MB-231 breast = system: MDA-MB-231 breast
MOLT-4 leukemia = system: MOLT-4 leukemia
NCI-H226 lung = system: NCI-H226 lung
NCI-H23 lung = system: NCI-H23 lung
NCI-H460 lung = system: NCI-H460 lung
NCI-H522 lung = system: NCI-H522 lung
NCI/ADR-RES ovarian = system: NCI/ADR-RES ovarian
OVCAR-3 ovarian = system: OVCAR-3 ovarian
OVCAR-4 ovarian = system: OVCAR-4 ovarian
OVCAR-5 ovarian = system: OVCAR-5 ovarian
OVCAR-8 ovarian = system: OVCAR-8 ovarian
PC-3 prostate = system: PC-3 prostate
RPMI-8226 leukemia = system: RPMI-8226 leukemia
RXF 393 renal = system: RXF 393 renal
SF-268 CNS = system: SF-268 CNS
SF-295 CNS = system: SF-295 CNS
SF-539 CNS = system: SF-539 CNS
SK-MEL-2 melanoma = system: SK-MEL-2 melanoma
SK-MEL-28 melanoma = system: SK-MEL-28 melanoma
SK-MEL-5 melanoma = system: SK-MEL-5 melanoma
SK-OV-3 ovarian = system: SK-OV-3 ovarian
SN12C renal = system: SN12C renal
SNB-19 CNS = system: SNB-19 CNS
SNB-75 CNS = system: SNB-75 CNS
SR leukemia = system: SR leukemia
SW-620 colon = system: SW-620 colon
T-47D breast = system: T-47D breast
TK-10 renal = system: TK-10 renal
U251 CNS = system: U251 CNS
UACC-257 melanoma = system: UACC-257 melanoma
UACC-62 melanoma = system: UACC-62 melanoma
UO-31 renal = system: UO-31 renal

Cc1ccc(C2=NN(c3ccc(S(C)(=O)=O)cc3)C(=O)CC2)cc1
GI50 (786-0 renal): 7.26 µM | TGI (786-0 renal): > 100 µM | GI50 (A498 renal): 0.282 µM | TGI (A498 renal): 7.73 µM | GI50 (A549 NSCLC): 0.615 µM | TGI (A549 NSCLC): > 100 µM | GI50 (ACHN renal): 8.52 µM | TGI (ACHN renal): > 100 µM | GI50 (BT-549 breast): 0.569 µM | TGI (BT-549 breast): > 100 µM | GI50 (CAKI-1 renal): 1.64 µM | TGI (CAKI-1 renal): > 100 µM | GI50 (CCRF-CEM leukemia): 0.843 µM | TGI (CCRF-CEM leukemia): > 100 µM | GI50 (COLO 205 colon): 0.587 µM | TGI (COLO 205 colon): 5.16 µM | GI50 (DU-145 prostate): 2.48 µM | TGI (DU-145 prostate): > 100 µM | GI50 (EKVX NSCLC): 3.84 µM | TGI (EKVX NSCLC): > 100 µM | GI50 (HCC-2998 colon): 3.1 µM | TGI (HCC-2998 colon): > 100 µM | GI50 (HCT-116 colon): 0.431 µM | TGI (HCT-116 colon): > 85.4 µM | GI50 (HCT-15 colon): 0.74 µM | TGI (HCT-15 colon): > 100 µM | GI50 (HL-60(TB) leukemia): 0.525 µM | GI50 (HOP-62 NSCLC): 1.78 µM | TGI (HOP-62 NSCLC): > 100 µM | GI50 (HOP-92 NSCLC): 1.02 µM | TGI (HOP-92 NSCLC): > 28.8 µM | GI50 (HS 578T breast): 2.24 µM | TGI (HS 578T breast): > 100 µM | GI50 (HT29 colon): 0.349 µM | TGI (HT29 colon): > 32.9 µM | GI50 (IGROV1 ovarian): 1.82 µM | TGI (IGROV1 ovarian): > 100 µM | GI50 (K-562 leukemia): 0.408 µM | TGI (K-562 leukemia): > 100 µM | GI50 (KM12 colon): 0.452 µM | TGI (KM12 colon): > 100 µM | GI50 (LOX IMVI melanoma): 0.806 µM | TGI (LOX IMVI melanoma): > 100 µM | GI50 (M14 melanoma): 0.419 µM | TGI (M14 melanoma): > 100 µM | GI50 (MALME-3M melanoma): 51.9 µM | TGI (MALME-3M melanoma): > 100 µM | GI50 (MCF7 breast): 1.3 µM | TGI (MCF7 breast): > 100 µM | GI50 (MDA-MB-231 breast): 1.37 µM | TGI (MDA-MB-231 breast): > 100 µM | GI50 (MOLT-4 leukemia): 0.875 µM | TGI (MOLT-4 leukemia): > 100 µM | GI50 (NCI-H226 lung): 42.3 µM | TGI (NCI-H226 lung): > 100 µM | GI50 (NCI-H23 lung): 2.13 µM | TGI (NCI-H23 lung): > 100 µM | GI50 (NCI-H460 lung): 0.402 µM | TGI (NCI-H460 lung): > 100 µM | GI50 (NCI-H522 lung): 0.225 µM | TGI (NCI-H522 lung): 1.04 µM | GI50 (NCI/ADR-RES ovarian): 0.322 µM | TGI (NCI/ADR-RES ovarian): > 100 µM | GI50 (OVCAR-3 ovarian): 0.349 µM | TGI (OVCAR-3 ovarian): 2.35 µM | GI50 (OVCAR-4 ovarian): > 27.3 µM | TGI (OVCAR-4 ovarian): > 100 µM | GI50 (OVCAR-5 ovarian): 10.1 µM | TGI (OVCAR-5 ovarian): > 100 µM | GI50 (OVCAR-8 ovarian): 1.35 µM | TGI (OVCAR-8 ovarian): > 100 µM | GI50 (PC-3 prostate): 1.78 µM | TGI (PC-3 prostate): > 100 µM | GI50 (RPMI-8226 leukemia): 1.62 µM | TGI (RPMI-8226 leukemia): > 100 µM | GI50 (RXF 393 renal): 1.11 µM | TGI (RXF 393 renal): > 26.1 µM | GI50 (SF-268 CNS): 6.25 µM | TGI (SF-268 CNS): > 100 µM | GI50 (SF-295 CNS): 0.396 µM | TGI (SF-295 CNS): 16.8 µM | GI50 (SF-539 CNS): 1.45 µM | TGI (SF-539 CNS): 23.4 µM | GI50 (SK-MEL-2 melanoma): 0.541 µM | TGI (SK-MEL-2 melanoma): > 100 µM | GI50 (SK-MEL-28 melanoma): 2.58 µM | TGI (SK-MEL-28 melanoma): > 100 µM | GI50 (SK-MEL-5 melanoma): 0.633 µM | TGI (SK-MEL-5 melanoma): > 42.1 µM | GI50 (SK-OV-3 ovarian): 1.57 µM | TGI (SK-OV-3 ovarian): 21.5 µM | GI50 (SN12C renal): 5.57 µM | TGI (SN12C renal): > 100 µM | GI50 (SNB-19 CNS): 6.42 µM | TGI (SNB-19 CNS): > 100 µM | GI50 (SNB-75 CNS): 0.542 µM | TGI (SNB-75 CNS): 9.25 µM | GI50 (SR leukemia): 0.4 µM | TGI (SR leukemia): > 100 µM | GI50 (SW-620 colon): 0.368 µM | TGI (SW-620 colon): > 100 µM | GI50 (T-47D breast): 3.82 µM | TGI (T-47D breast): > 100 µM | GI50 (TK-10 renal): 12.8 µM | TGI (TK-10 renal): > 100 µM | GI50 (U251 CNS): 0.579 µM | TGI (U251 CNS): > 100 µM | GI50 (UACC-257 melanoma): 3.4 µM | TGI (UACC-257 melanoma): > 100 µM | GI50 (UACC-62 melanoma): 0.493 µM | TGI (UACC-62 melanoma): > 100 µM | GI50 (UO-31 renal): 7.85 µM | TGI (UO-31 renal): > 100 µM
